The values below come from patent US7592457B2 (Korea Research Institute of Chemical Technology, priority 2004, dated 2009).

For data set [1], the system named is rat maximal electroseizure threshold. To be noted: literature; cited from earlier work.
In data set [2] the test system is rats. To be noted: literature; cited from earlier work.
Data set [3] deals with rats. To be noted: literature; cited from earlier work. The source holds these as a separate data set.
Another data set addresses T1, hD4.2 receptor (Homo sapiens, UniProt P21917, DEL265-296).
T1 construct: purchased BioSignal Packard Inc., Montreal, Canada
T1 sequence (P21917 with tags, fused parts or gaps DEL265-296): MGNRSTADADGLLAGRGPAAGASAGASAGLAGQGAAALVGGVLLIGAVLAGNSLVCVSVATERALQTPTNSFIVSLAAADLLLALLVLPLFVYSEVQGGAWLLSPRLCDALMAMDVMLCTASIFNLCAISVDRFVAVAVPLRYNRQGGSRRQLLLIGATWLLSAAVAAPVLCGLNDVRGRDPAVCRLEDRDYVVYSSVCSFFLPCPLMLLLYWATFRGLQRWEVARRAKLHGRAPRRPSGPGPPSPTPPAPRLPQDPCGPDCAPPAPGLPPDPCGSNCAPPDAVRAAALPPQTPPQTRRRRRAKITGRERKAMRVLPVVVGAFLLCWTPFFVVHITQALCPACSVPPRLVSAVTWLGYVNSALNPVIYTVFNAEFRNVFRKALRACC
As to the kind of experiment: Radioligand binding, dopamine D4 ([3H]YM-09151-2). The note with it: read-out: Binding affinity (Inhibition rate % at 10 μM) D4.

The target in a further data set is T2, 5-HT7 (Homo sapiens, UniProt P34969).
T2 construct: purchased Euroscreen/BioSignal Packard Inc
T2 sequence (P34969 whole entry): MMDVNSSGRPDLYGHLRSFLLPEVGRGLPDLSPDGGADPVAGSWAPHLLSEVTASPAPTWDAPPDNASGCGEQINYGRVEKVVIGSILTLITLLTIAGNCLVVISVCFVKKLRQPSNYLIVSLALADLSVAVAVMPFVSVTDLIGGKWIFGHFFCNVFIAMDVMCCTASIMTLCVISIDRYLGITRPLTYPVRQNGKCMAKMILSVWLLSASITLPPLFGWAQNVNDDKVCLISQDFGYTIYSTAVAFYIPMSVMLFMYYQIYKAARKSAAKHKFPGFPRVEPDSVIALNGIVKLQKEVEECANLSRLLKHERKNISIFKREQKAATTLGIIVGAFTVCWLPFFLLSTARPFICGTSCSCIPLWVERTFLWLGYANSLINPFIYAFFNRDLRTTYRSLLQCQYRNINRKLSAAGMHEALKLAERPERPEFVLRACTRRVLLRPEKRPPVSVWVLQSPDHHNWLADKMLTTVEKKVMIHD
As to the kind of experiment: Radioligand binding, 5-HT7 ([3H]LSD). The note with it: 10 μM. As to the method:
(§1) Radioligand bindings were performed according to the test method provided by the supplier of receptor membrane (Euroscreen/BioSignal Packard Inc.).

The next data set has as its target T3, hD2L receptor (Homo sapiens, UniProt P14416).
T3 construct: purchased BioSignal Packard Inc., Montreal, Canada
The experiment in a line: Radioligand binding, dopamine D2 ([3H]spiperone). The note with it: read-out: Binding affinity (Inhibition rate % at 10 μM) D2.

The next data set concerns the target T4, 5-HT2a (Homo sapiens, UniProt P28223).
T4 construct: purchased Euroscreen/BioSignal Packard Inc
As to the kind of experiment: Radioligand binding, 5-HT2a ([3H]Ketanserin). To be noted: read-out: Binding affinity (Inhibition rate % at 10 μM) 5HT2a. As to the method: as §1

In a further data set the target is T5, 5-HT1a (Homo sapiens, UniProt P08908).
T5 construct: purchased Euroscreen/BioSignal Packard Inc
T5 sequence (P08908 1-422): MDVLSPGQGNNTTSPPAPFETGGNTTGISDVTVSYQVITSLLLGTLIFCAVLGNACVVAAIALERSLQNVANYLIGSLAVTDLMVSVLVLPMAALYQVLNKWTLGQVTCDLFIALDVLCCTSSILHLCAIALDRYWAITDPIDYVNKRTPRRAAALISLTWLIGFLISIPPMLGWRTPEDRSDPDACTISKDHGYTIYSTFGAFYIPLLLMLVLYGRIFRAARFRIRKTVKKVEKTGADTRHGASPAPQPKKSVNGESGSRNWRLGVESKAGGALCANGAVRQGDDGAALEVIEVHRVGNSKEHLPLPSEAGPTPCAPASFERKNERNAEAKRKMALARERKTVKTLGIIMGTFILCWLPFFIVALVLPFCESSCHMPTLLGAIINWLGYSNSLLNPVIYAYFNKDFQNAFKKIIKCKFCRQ
As to the kind of experiment: Radioligand binding, 5-HT1a ([3H]8-OH-DPAT). To be noted: read-out: Binding affinity (Inhibition rate % at 10 μM) 5HT1a. The procedure:
as §1

Another data set has as its target T6, hD3 receptor (Homo sapiens, UniProt P35462).
T6 construct: purchased BioSignal Packard Inc., Montreal, Canada
The experiment in a line: Radioligand binding, dopamine D3 ([3H]spiperone). To be noted: read-out: Binding affinity (Inhibition rate % at 10 μM) D3.

A further data set deals with D1 (Homo sapiens, UniProt P21728). As to the kind of experiment: Radioligand binding for selectivity, D1. The note with it: read-out: Binding affinity (Inhibition rate % at 10 μM) D1.
Sequence of D1 (P21728 whole entry): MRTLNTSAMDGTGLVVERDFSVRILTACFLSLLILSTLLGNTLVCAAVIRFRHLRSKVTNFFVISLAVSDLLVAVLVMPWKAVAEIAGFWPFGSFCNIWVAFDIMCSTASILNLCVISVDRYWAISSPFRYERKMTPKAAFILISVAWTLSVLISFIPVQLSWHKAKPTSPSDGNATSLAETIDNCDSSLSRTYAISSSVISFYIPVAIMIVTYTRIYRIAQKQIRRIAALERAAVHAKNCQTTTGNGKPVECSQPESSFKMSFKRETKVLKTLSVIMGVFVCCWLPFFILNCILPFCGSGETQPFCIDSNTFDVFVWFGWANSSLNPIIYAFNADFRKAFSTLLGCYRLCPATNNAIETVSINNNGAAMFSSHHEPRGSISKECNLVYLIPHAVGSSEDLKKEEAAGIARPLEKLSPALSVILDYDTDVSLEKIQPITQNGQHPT
In data set [4] the test system is extracellular glutamate levels. To be noted: frontal cortex and dorsal hippocampus, literature; cited from earlier work.
For data set [5], the system named is rats. To be noted: water maze, literature; cited from earlier work.
Another data set has as its target T7, 5-HT2c (Homo sapiens, UniProt P28335).
T7 construct: purchased Euroscreen/BioSignal Packard Inc
T7 sequence (P28335 33-458): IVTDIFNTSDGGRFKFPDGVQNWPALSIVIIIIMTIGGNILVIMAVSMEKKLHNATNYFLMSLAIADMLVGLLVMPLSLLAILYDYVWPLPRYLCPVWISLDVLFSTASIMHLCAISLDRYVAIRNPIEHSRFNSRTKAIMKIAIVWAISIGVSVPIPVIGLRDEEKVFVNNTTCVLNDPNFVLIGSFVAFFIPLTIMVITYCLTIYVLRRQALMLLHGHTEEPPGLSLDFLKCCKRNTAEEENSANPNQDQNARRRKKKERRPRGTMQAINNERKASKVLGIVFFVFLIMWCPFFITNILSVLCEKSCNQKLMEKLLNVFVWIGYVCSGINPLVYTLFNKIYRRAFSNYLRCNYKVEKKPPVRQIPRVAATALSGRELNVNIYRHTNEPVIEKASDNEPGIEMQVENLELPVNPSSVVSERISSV
The experiment in a line: Radioligand binding, 5-HT2c ([3H]Mesulergine). The note with it: read-out: Binding affinity (Inhibition rate % at 10 μM) 5HT2c. The procedure: as §1

For data set [6] the following is noted: literature; cited from earlier work.

SMILES strings stand for the structures.

T3 sequence (P14416 whole entry): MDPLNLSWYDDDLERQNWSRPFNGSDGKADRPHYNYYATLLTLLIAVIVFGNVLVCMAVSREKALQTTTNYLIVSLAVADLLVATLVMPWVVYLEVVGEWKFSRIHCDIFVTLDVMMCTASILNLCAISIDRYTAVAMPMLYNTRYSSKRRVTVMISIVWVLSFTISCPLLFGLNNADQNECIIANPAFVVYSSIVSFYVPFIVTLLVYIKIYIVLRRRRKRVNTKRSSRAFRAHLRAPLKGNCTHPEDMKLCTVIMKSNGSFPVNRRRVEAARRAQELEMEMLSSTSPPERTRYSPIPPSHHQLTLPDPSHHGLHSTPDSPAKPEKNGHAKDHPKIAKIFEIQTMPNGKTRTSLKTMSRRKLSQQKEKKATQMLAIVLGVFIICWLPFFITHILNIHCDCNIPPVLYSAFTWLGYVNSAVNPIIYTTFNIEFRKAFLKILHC
T6 sequence (P35462 whole entry): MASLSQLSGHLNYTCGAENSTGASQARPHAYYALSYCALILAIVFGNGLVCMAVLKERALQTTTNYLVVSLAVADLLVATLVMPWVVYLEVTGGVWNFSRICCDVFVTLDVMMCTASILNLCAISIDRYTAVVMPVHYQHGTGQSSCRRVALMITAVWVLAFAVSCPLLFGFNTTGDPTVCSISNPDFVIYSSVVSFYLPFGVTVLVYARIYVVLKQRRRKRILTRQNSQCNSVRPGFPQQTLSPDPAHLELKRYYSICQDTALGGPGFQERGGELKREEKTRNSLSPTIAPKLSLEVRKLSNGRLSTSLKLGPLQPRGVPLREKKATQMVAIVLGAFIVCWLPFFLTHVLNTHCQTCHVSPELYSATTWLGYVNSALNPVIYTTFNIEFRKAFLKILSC
T4 sequence (P28223 whole entry): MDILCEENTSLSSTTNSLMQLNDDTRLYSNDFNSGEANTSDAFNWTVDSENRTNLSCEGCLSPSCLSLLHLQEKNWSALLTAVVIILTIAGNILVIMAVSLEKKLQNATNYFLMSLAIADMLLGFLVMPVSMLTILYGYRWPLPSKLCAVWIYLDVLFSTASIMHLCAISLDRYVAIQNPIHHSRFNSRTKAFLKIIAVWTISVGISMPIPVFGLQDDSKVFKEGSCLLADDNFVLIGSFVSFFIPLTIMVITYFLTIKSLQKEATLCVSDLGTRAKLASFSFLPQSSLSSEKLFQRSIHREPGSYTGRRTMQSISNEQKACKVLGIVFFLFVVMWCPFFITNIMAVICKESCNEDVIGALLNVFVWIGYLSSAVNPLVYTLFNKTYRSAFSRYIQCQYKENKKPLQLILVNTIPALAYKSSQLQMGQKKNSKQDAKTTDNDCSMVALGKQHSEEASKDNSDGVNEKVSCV

Regarding `CNc1cc(NS(=O)(=O)c2ccc(N)cc2)nc(NC)n1` [Ro 04-6790], the anticonvulsant activity result in [1] is “possess anticonvulsant activity”. Further, the food intake result in the data set on rats [2] is reported as “decreased food intake”. The “behavior of yawning, stretching, and chewing” value in the data set on rats [3] is given as “capable of inducing this same effect”.
The inhibition is the relative decrease from the control value, in per cent. On to `COc1ccc(NS(=O)(=O)c2sc3ccc(Cl)cc3c2C)cc1N1CCNCC1` [SB-271046, reference compound], for which, in data set [1], the anticonvulsant activity result is given as “possess anticonvulsant activity”. Besides, the inhibition at 10 µM came out at 14.2% on hD4.2 receptor; 17.3% on hD2L receptor; 60.1% on 5-HT2a; 84.2% at 5-HT1a; 66.2% on hD3 receptor; 49.7% on D1. Further, the inhibition at 10 µM on 5-HT2c worked out at 64.3%. Also, the “Binding affinity (Inhibition rate % at 10 μM) 5HT7” value at 5-HT7 was found to be 34.9%. For the same compound, the extracellular glutamate levels result in data set [4] is “increased extracellular glutamate levels in frontal cortex and dorsal hippocampus by several fold”. The “retention of a previously learned task” value in the data set on rats [5] is on record as “significant improvement in retention of a previously learned task”. In addition, in data set [6], the oral bioavailability is recorded as above 80%.
